From patent publication US5140018A, “1,3,2-benzodithiazole-1-oxide compounds” (Abbott Laboratories, priority 1991, dated 1992)
Converted amounts (≈) assume the structure as drawn.

Columns and labels:
Type in all cases: cell-based
[1] = tested on: Candida albicans ATCC 62376; experiment: In vitro antifungal MIC, Candida albicans ATCC 62376; conditions: ATCC62376; Candida albicans ATCC 62376; 35°-37° C., 48 hours; read-out: MIC
Method: (§1) The in vitro antifungal activity of the compounds of the present invention against a variety of fungiwas determined as follow: Test medium was prepared by dissolving first 5 g of dextrose and then 6.7 g of Bacto Yeast Nitrogen Base® (commercially available from Difco Laboratories) in 100 mL of distilled water. The solution was filter-sterilized and diluted 1:10 with 0.01M pH 8.0 phosphate buffer solution, and the final pH of the medium adjusted to about pH 7.0 when necessary with either 0.1N hydrochloric acid solution of 0.1N sodium hydroxide solution. […] These concentrated stock solutions were diluted to a concentration of 200 μg/mL (twice the highest concentration desired for testing) with the test medium. Amphotericin B, similarly prepared, was used as a reference antifungal agent.
(§2) The test organisms were then inoculated into test tubes containing approximately 3 to 10 mL of test medium and the test tubes incubated overnight at 37° C. A sample of each overnight culture was placed in a test tube and diluted using the test medium until a reading of 95% transmittance was obtained in a conventional UV/visible spectrophotometer set to 560 nm. The adjusted cultures were then diluted 1:50 with test medium. These diluted cultures served as the inocula for the assays which follow and were used within 15 minutes of preparation.
(§3) Next, 2-fold serial dilutions of each test compound in test medium were prepared in a 96-well microtiter plate using calibrated microdiluters attached to an automatic (hand-held) diluter (available from Dynatech Laboratories).
(§4) Using sterile calibrated droppers or a multi-point dispenser, the diluted inoculum suspension was added to each of the wells in the plate. When inoculation was complete, the microtiter tray was covered with a plastic plate sealer to minimize evaporation. After the plate had been sealed, a hole was made above each well with a sterile 26-gauge syringe needle in order to allow gas exchange. If plate sealers were not available, the microtiter trays were stacked in groups of five or less with an empty tray on top. The microtiter trays were then incubated in a humidified chamber at 35°-37° C. for 48 hours or until growth was visible in the growth control wells.
(§5) The minimum inhibitory concentration (MIC) was defined as the lowest concentration of test compound yielding no growth, a slight haze or sparsely isolated colonies on the inoculum spot as compared to the growth control containing no test compound.

Candida kefyr ATCC 28838 = experiment: In vitro antifungal MIC, Candida kefyr ATCC 28838; conditions: Kluyveromyces marxianus, ATCC28838; Candida kefyr ATCC 28838; 35°-37° C., 48 hours; read-out: MIC
Method: as §1, §2, §3, §4, §5

[2] = tested on: Torulopsis glabrata ATCC 15545; experiment: In vitro antifungal MIC, Torulopsis glabrata ATCC 15545; conditions: Nakaseomyces glabratus, ATCC15545; Torulopsis glabrata ATCC 15545; 35°-37° C., 48 hours; read-out: MIC
Method: as §1, §2, §3, §4, §5

[3] = tested on: Candida albicans ATCC 38247; experiment: In vitro antifungal MIC, Candida albicans ATCC 38247; conditions: ATCC38247; Candida albicans ATCC 38247; 35°-37° C., 48 hours; read-out: MIC
Method: as §1, §2, §3, §4, §5

Candida albicans 579A = experiment: In vitro antifungal MIC, Candida albicans 579A; conditions: Candida albicans 579A; 35°-37° C., 48 hours; read-out: MIC
Method: as §1, §2, §3, §4, §5

[4] = tested on: Aspergillus niger ATCC 16404; experiment: In vitro antifungal MIC, Aspergillus niger ATCC 16404; conditions: ATCC16404; Aspergillus niger ATCC 16404; 35°-37° C., 48 hours; read-out: MIC
Method: as §1, §2, §3, §4, §5

[5] = tested on: Candida albicans ATCC 10231; experiment: In vitro antifungal MIC, Candida albicans ATCC 10231; conditions: ATCC10231; Candida albicans ATCC 10231; 35°-37° C., 48 hours; read-out: MIC
Method: as §1, §2, §3, §4, §5

Candida albicans CCH 442 = experiment: In vitro antifungal MIC, Candida albicans CCH 442; conditions: CCH442; Candida albicans CCH 442; 35°-37° C., 48 hours; read-out: MIC
Method: as §1, §2, §3, §4, §5

[6] = tested on: Candida tropicalis NRRL-Y-112; experiment: In vitro antifungal MIC, Candida tropicalis NRRL-Y-112; conditions: NRRLY112; Candida tropicalis NRRL-Y-112; 35°-37° C., 48 hours; read-out: MIC
Method: as §1, §2, §3, §4, §5

[7] = tested on: Cryptococcus albidus ATCC 34140; experiment: In vitro antifungal MIC, Cryptococcus albidus ATCC 34140; conditions: Naganishia albida, ATCC34140; Cryptococcus albidus ATCC 34140; 35°-37° C., 48 hours; read-out: MIC
Method: as §1, §2, §3, §4, §5

SMILES	MIC [1]	MIC (Candida kefyr ATCC 28838)	MIC [2]	MIC [3]	MIC (Candida albicans 579A)	MIC [4]	MIC [5]	MIC (Candida albicans CCH 442)	MIC [6]	MIC [7]
CCCCCCCCCN1Sc2ccccc2[S+]1[O-] (centres unmarked) [Example 7, 2-n-nonyl-1,3,2-benzodithiazole-1-oxide]	1.56 µg/mL (≈ 5.24 µM)	0.78 µg/mL (≈ 2.62 µM)	1.56 µg/mL (≈ 5.24 µM)	1.56 µg/mL (≈ 5.24 µM)	0.78 µg/mL (≈ 2.62 µM)	0.78 µg/mL (≈ 2.62 µM)	1.56 µg/mL (≈ 5.24 µM)	1.56 µg/mL (≈ 5.24 µM)	1.56 µg/mL (≈ 5.24 µM)	6.25 µg/mL (≈ 21 µM)
CCCCCCCCCCN1Sc2ccccc2[S+]1[O-] (centres unmarked) [Example 8, 2-n-decyl-1,3,2-benzodithiazole-1-oxide]	6.25 µg/mL (≈ 20.1 µM)	1.56 µg/mL (≈ 5.01 µM)	3.12 µg/mL (≈ 10 µM)	6.25 µg/mL (≈ 20.1 µM)	6.25 µg/mL (≈ 20.1 µM)	1.56 µg/mL (≈ 5.01 µM)	1.56 µg/mL (≈ 5.01 µM)	6.25 µg/mL (≈ 20.1 µM)	3.12 µg/mL (≈ 10 µM)	12.5 µg/mL (≈ 40.1 µM)
C=CCN1Sc2ccccc2[S+]1[O-] (centres unmarked) [Example 10, 2-allyl-1,3,2-benzodithiazole-1-oxide]	0.39 µg/mL (≈ 1.85 µM)	0.2 µg/mL (≈ 0.946 µM)	0.39 µg/mL (≈ 1.85 µM)	6.25 µg/mL (≈ 29.6 µM)	0.39 µg/mL (≈ 1.85 µM)	0.2 µg/mL (≈ 0.946 µM)	0.39 µg/mL (≈ 1.85 µM)	0.78 µg/mL (≈ 3.69 µM)	0.78 µg/mL (≈ 3.69 µM)	3.12 µg/mL (≈ 14.8 µM)
C#CCN1Sc2ccccc2[S+]1[O-] (centres unmarked) [Example 12, 2-propargyl-1,3,2-benzodithiazole-1-oxide]	0.39 µg/mL (≈ 1.86 µM)	0.78 µg/mL (≈ 3.73 µM)	0.39 µg/mL (≈ 1.86 µM)		0.78 µg/mL (≈ 3.73 µM)	1.56 µg/mL (≈ 7.45 µM)	0.39 µg/mL (≈ 1.86 µM)	0.78 µg/mL (≈ 3.73 µM)	1.56 µg/mL (≈ 7.45 µM)	1.56 µg/mL (≈ 7.45 µM)
CC(C)(C)N1Sc2ccccc2[S+]1[O-] (centres unmarked) [Example 14, 2-t-butyl-1,3,2-benzodithiazole-1-oxide]	0.78 µg/mL (≈ 3.43 µM)	0.2 µg/mL (≈ 0.88 µM)	1.56 µg/mL (≈ 6.86 µM)	6.25 µg/mL (≈ 27.5 µM)	1.56 µg/mL (≈ 6.86 µM)	0.78 µg/mL (≈ 3.43 µM)	1.56 µg/mL (≈ 6.86 µM)	1.56 µg/mL (≈ 6.86 µM)	3.12 µg/mL (≈ 13.7 µM)	3.12 µg/mL (≈ 13.7 µM)
CC(C)(C)CCN1Sc2ccccc2[S+]1[O-] (centres unmarked) [Example 15]	1.56 µg/mL (≈ 6.11 µM)	0.78 µg/mL (≈ 3.05 µM)	1.56 µg/mL (≈ 6.11 µM)	25 µg/mL (≈ 97.9 µM)	3.12 µg/mL (≈ 12.2 µM)	1.56 µg/mL (≈ 6.11 µM)	1.56 µg/mL (≈ 6.11 µM)	1.56 µg/mL (≈ 6.11 µM)	3.12 µg/mL (≈ 12.2 µM)	12.5 µg/mL (≈ 48.9 µM)
CC(C)(C)CC(C)(C)N1Sc2ccccc2[S+]1[O-] (centres unmarked) [Example 16, 2-(1,1,3,3-tetramethylbutyl)-1,3,2-benzodithiazole-1-oxide]	6.25 µg/mL (≈ 22 µM)	0.78 µg/mL (≈ 2.75 µM)	6.25 µg/mL (≈ 22 µM)	1.56 µg/mL (≈ 5.5 µM)	3.12 µg/mL (≈ 11 µM)	3.12 µg/mL (≈ 11 µM)	6.25 µg/mL (≈ 22 µM)	1.56 µg/mL (≈ 5.5 µM)	12.5 µg/mL (≈ 44.1 µM)	6.25 µg/mL (≈ 22 µM)
[O-][S+]1c2ccccc2SN1CCO (centres unmarked) [Example 18, 2-(2-hydroxyethyl)-1,3,2-benzodithiazole-1-oxide]	25 µg/mL (≈ 116 µM)	0.78 µg/mL (≈ 3.62 µM)	6.25 µg/mL (≈ 29 µM)	1.56 µg/mL (≈ 7.25 µM)	12.5 µg/mL (≈ 58.1 µM)	6.25 µg/mL (≈ 29 µM)	12.5 µg/mL (≈ 58.1 µM)	12.5 µg/mL (≈ 58.1 µM)	12.5 µg/mL (≈ 58.1 µM)	1.56 µg/mL (≈ 7.25 µM)
CS(=O)(=O)OCCN1Sc2ccccc2[S+]1[O-] (centres unmarked) [Example 19, O-(2-(1,3,2-benzodithiazole-2-yl-1-oxide)ethyl)methanesulfonate]	100 µg/mL (≈ 341 µM)	1.56 µg/mL (≈ 5.32 µM)	6.25 µg/mL (≈ 21.3 µM)	100 µg/mL (≈ 341 µM)	50 µg/mL (≈ 170 µM)	12.5 µg/mL (≈ 42.6 µM)	50 µg/mL (≈ 170 µM)	100 µg/mL (≈ 341 µM)	25 µg/mL (≈ 85.2 µM)	12.5 µg/mL (≈ 42.6 µM)
